# Reference: patent US20170190671A1, “BIS(ARYL)CATECHOL DERIVATIVES AS HERBICIDES” (E I DU PONT DE NEMOURS AND COMPANY, priority 2014, published 2017)
# Experiments:
# Assay in all cases: Test F preemergence
# Type in all cases: in vivo
# Settings in all cases: 21 days, scale 0 to 100
# [1] = test system: bermudagrass (Cynodon dactylon)
# Text: (§1) Seeds of plant species selected from bermudagrass (Cynodon dactylon), Surinam grass (Brachiaria decumbens), large (Lg) crabgrass (Digitaria sanguinalis), crabgrass, naked (naked crabgrass, Digitaria nuda), foxtail, green (green foxtail, Setaria viridis), johnsongrass (Sorghum halepense), kochia (Kochia scoparia), morningglory (pitted morningglory, Ipomoea lacunosa), nutsedge, purple (purple nutsedge, Cyperus rotundus), ragweed (common ragweed, Ambrosia elatior), mustard, black (black mustard, Brassica nigra), guineagrass (Panicum maximum), dallisgrass (Paspalum dilatatum), barnyardgrass (Echinochloa crus-galli), sandbur (southern sandbur, Cenchrus echinatus), sowthistle (common sowthistle, Sonchus oleraceous), Italian ryegrass (Lolium multiflorum), signalgrass (broadleaf signalgrass, Brachiaria platyphylla), dayflower (Virginia (VA) dayflower, Commelina virginica), bluegrass (annual bluegrass, Poa annua), quackgrass (Elytrigia repens), mallow (common mallow, Malva sylvestris), buckwheat, wild (wild buckwheat, Polygonum convolvulus), leafy spurge (Euphorbia esula), chickweed (common chickweed, Stellaria media), wild poinsettia (Euphorbia heterophylla), and pigweed (Amaranthus retroflexus) were planted into a blend of loam soil and sand and treated preemergence with test a chemical formulated in a non-phytotoxic solvent mixture which included a surfactant.
# (§2) Treated plants and controls were maintained in a greenhouse for 21 days, after which time all species were compared to controls and visually evaluated. Plant response ratings, summarized in Table F, are based on a scale of 0 to 100 where 0 is no effect and 100 is complete control. A dash (-) response means no test result.
# [2] = test system: ragweed (common ragweed, Ambrosia elatior)
# Text: as §1, §2
# [3] = test system: mustard, black (black mustard, Brassica nigra)
# Text: as §1, §2
# [4] = test system: crabgrass, naked (naked crabgrass, Digitaria nuda)
# Text: as §1, §2
# [5] = test system: mallow (common mallow, Malva sylvestris)
# Text: as §1, §2
# [6] = test system: sowthistle (common sowthistle, Sonchus oleraceous)
# Text: as §1, §2
# [7] = test system: chickweed (common chickweed, Stellaria media)
# Text: as §1, §2
# [8] = test system: signalgrass (broadleaf signalgrass, Brachiaria platyphylla)
# Text: as §1, §2
# [9] = test system: foxtail, green (green foxtail, Setaria viridis)
# Text: as §1, §2
# [10] = test system: leafy spurge (Euphorbia esula)
# Text: as §1, §2
# [11] = test system: dallisgrass (Paspalum dilatatum)
# Text: as §1, §2
# [12] = test system: quackgrass (Elytrigia repens)
# Text: as §1, §2
# [13] = test system: dayflower (Virginia (VA) dayflower, Commelina virginica)
# Text: as §1, §2
# [14] = test system: large (Lg) crabgrass (Digitaria sanguinalis)
# Text: as §1, §2
# [15] = test system: pigweed (Amaranthus retroflexus)
# Text: as §1, §2
# [16] = test system: morningglory (pitted morningglory, Ipomoea lacunosa)
# Text: as §1, §2
# [17] = test system: barnyardgrass (Echinochloa crus-galli)
# Text: as §1, §2
smiles,measurement,setting,value
"N#Cc1cccc(Oc2ncc(Cl)cn2)c1Oc1ncc(Cl)cn1 [Compound 3, 2,3-bis[(5-chloro-2-pyrimidinyl)oxy]benzonitrile]","Plant response rating, Bermudagrass",[1]; 62 g ai/ha,100
same,"Plant response rating, Bermudagrass",[1]; 125 g ai/ha,100
same,"Plant response rating, Bermudagrass",[1]; 250 g ai/ha,100
same,"Plant response rating, Ragweed",[2]; 62 g ai/ha,85
same,"Plant response rating, Ragweed",[2]; 125 g ai/ha,100
same,"Plant response rating, Ragweed",[2]; 250 g ai/ha,100
same,"Plant response rating, Mustard, Black",[3]; 62 g ai/ha,100
same,"Plant response rating, Mustard, Black",[3]; 125 g ai/ha,100
same,"Plant response rating, Mustard, Black",[3]; 250 g ai/ha,100
same,"Plant response rating, Crabgrass, Naked",[4]; 62 g ai/ha,100
same,"Plant response rating, Crabgrass, Naked",[4]; 125 g ai/ha,100
same,"Plant response rating, Crabgrass, Naked",[4]; 250 g ai/ha,100
same,"Plant response rating, Mallow",[5]; 62 g ai/ha,100
same,"Plant response rating, Mallow",[5]; 125 g ai/ha,100
same,"Plant response rating, Mallow",[5]; 250 g ai/ha,100
same,"Plant response rating, Sowthistle",[6]; 62 g ai/ha,100
same,"Plant response rating, Sowthistle",[6]; 125 g ai/ha,100
same,"Plant response rating, Sowthistle",[6]; 250 g ai/ha,100
same,"Plant response rating, Chickweed",[7]; 62 g ai/ha,100
same,"Plant response rating, Chickweed",[7]; 125 g ai/ha,100
same,"Plant response rating, Chickweed",[7]; 250 g ai/ha,100
same,"Plant response rating, Signalgrass",[8]; 62 g ai/ha,100
same,"Plant response rating, Signalgrass",[8]; 125 g ai/ha,100
same,"Plant response rating, Signalgrass",[8]; 250 g ai/ha,100
same,"Plant response rating, Foxtail, Green",[9]; 62 g ai/ha,100
same,"Plant response rating, Foxtail, Green",[9]; 125 g ai/ha,100
same,"Plant response rating, Foxtail, Green",[9]; 250 g ai/ha,100
same,"Plant response rating, Leafy Spurge",[10]; 62 g ai/ha,98
same,"Plant response rating, Leafy Spurge",[10]; 125 g ai/ha,100
same,"Plant response rating, Leafy Spurge",[10]; 250 g ai/ha,98
same,"Plant response rating, Dallisgrass",[11]; 62 g ai/ha,100
same,"Plant response rating, Dallisgrass",[11]; 125 g ai/ha,100
same,"Plant response rating, Dallisgrass",[11]; 250 g ai/ha,100
same,"Plant response rating, Quackgrass",[12]; 62 g ai/ha,65
same,"Plant response rating, Quackgrass",[12]; 125 g ai/ha,90
same,"Plant response rating, Quackgrass",[12]; 250 g ai/ha,98
same,"Plant response rating, Dayflower, VA",[13]; 62 g ai/ha,98
same,"Plant response rating, Dayflower, VA",[13]; 125 g ai/ha,100
same,"Plant response rating, Dayflower, VA",[13]; 250 g ai/ha,100
same,"Plant response rating, Crabgrass, Large",[14]; 62 g ai/ha,100
same,"Plant response rating, Crabgrass, Large",[14]; 125 g ai/ha,100
same,"Plant response rating, Crabgrass, Large",[14]; 250 g ai/ha,100
same,"Plant response rating, Pigweed",[15]; 62 g ai/ha,100
same,"Plant response rating, Pigweed",[15]; 125 g ai/ha,100
same,"Plant response rating, Pigweed",[15]; 250 g ai/ha,100
same,"Plant response rating, Morningglory, Pitt",[16]; 62 g ai/ha,100
same,"Plant response rating, Morningglory, Pitt",[16]; 125 g ai/ha,100
same,"Plant response rating, Morningglory, Pitt",[16]; 250 g ai/ha,100
same,"Plant response rating, Barnyardgrass",[17]; 62 g ai/ha,98
same,"Plant response rating, Barnyardgrass",[17]; 125 g ai/ha,100
same,"Plant response rating, Barnyardgrass",[17]; 250 g ai/ha,100
